In patent publication US20100172854A1, “ANTIBACTERIAL FORMULATIONS” (priority 2007, published 2010):
In brackets after ≈: the same amount, converted by molar mass.

Columns and labels:
S. aureus ATCC 12600-U = assay: MBC assay; assay type: cell-based, Staphylococcus aureus
Experimental: (§1) The staphylococci were cultured and maintained on Mueller-Hinton Medium (agar and broth) at pH 7.2; cultures were incubated aerobically at 37° C. for 19-20 hours.
(§2) This assay, normally carried out after an MIC assay, determines the minimum concentration of a compound that is lethal to the micro-organism being tested.
(§3) These samples were then individually sub-cultured on antibiotic-free agar medium, under the incubation conditions described above. Following incubation they were examined visually for microbial growth.

S. aureus CPHL VISA Mu3 = assay: MBC assay; assay type: cell-based, Staphylococcus aureus; settings: resistance phenotype Van (intermediate)
Experimental: as §1, §2, §3

S. aureus NCTC 12981 = assay: MBC assay; assay type: cell-based, Staphylococcus aureus
Experimental: as §1, §2, §3

[1] = system: Actinomyces naeslundii ATCC 12104; assay: MIC assay; assay type: cell-based
Experimental: (§4) This is a standard international method for quantitatively assessing the antimicrobial activity of a compound in a liquid medium. The method used a sterile 96-well microtitre plate, capable of holding about 200 μl of liquid per well. The wells contained liquid culture medium and ranges of decreasing concentrations of the relevant test compound in doubling dilutions (e.g. 1000, 500, 250, 125 . . . μg/ml, etc. down to 0.49 μg/ml). The culture media were as described above.
(§5) The wells were inoculated with a liquid suspension of freshly grown micro-organism and incubated under the conditions described above. After incubation, the microtitre plate was examined visually (with the aid of a light box) for cloudiness in each well, which would indicate microbial growth. The MIC value was recorded as the lowest concentration of test compound required to inhibit microbial growth, i.e. the lowest concentration for which the liquid in the well remained clear.
(§6) The assays included both negative (culture medium with no micro-organisms) and positive (culture medium plus diluting solvent plus micro-organism) controls.

[2] = system: Bacillus cereus ATCC 11778; assay: MIC assay; assay type: cell-based
Experimental: as §4, §5, §6

[3] = system: Clostridium difficile ATCC 7000057; assay: MIC assay; assay type: cell-based; settings: Clostridioides difficile, ATCC7000057
Experimental: as §4, §5, §6

[4] = system: Clostridium sporogenes ATCC 3584; assay: MIC assay; assay type: cell-based; settings: ATCC3584
Experimental: as §4, §5, §6

[5] = system: Corynebacterium mucifaciens ATCC 700355; assay: MIC assay; assay type: cell-based; settings: Corynebacterium mucifaciens, ATCC700355
Experimental: as §4, §5, §6

[6] = system: Enterococcus faecalis ATCC 29212; assay: MIC assay; assay type: cell-based; settings: Enterococcus faecalis, ATCC29212
Experimental: as §4, §5, §6

[7] = system: Gardnerella vaginalis ATCC 14018; assay: MIC assay; assay type: cell-based; settings: ATCC14018
Experimental: as §4, §5, §6

[8] = system: Listeria monocytogenes ATCC 15313; assay: MIC assay; assay type: cell-based
Experimental: as §4, §5, §6

[9] = system: Prevotella nigrescens ATCC 33563; assay: MIC assay; assay type: cell-based; settings: ATCC33563
Experimental: as §4, §5, §6

[10] = system: Streptococcus pyogenes ATCC 12344; assay: MIC assay; assay type: cell-based; settings: ATCC12344; Streptococcus pyogenes ATCC 12344
Experimental: as §4, §5, §6

[11] = system: Streptococcus sobrinus ATCC 33478; assay: MIC assay; assay type: cell-based; settings: ATCC33478
Experimental: as §4, §5, §6

P. granulosum PRP-005 = assay: Agar dilution MIC assay; assay type: cell-based; settings: Propionibacterium, PRP005, resistance phenotype MLSK
Experimental: (§7) The propionibacteria were cultured and maintained on Wilkins-Chalgren Anaerobe Medium (agar and broth) at pH 6.0; all cultures were incubated anaerobically at 37° C. for 72 hours.
(§8) This is a standard international method for quantitatively assessing the antimicrobial activity of a compound in a solid medium. The test compound was prepared to 40× the highest concentration required (e.g. 10 mg/ml for a final concentration of 250 μg/ml) and a series of doubling dilutions were performed in a suitable solvent. A set amount of these antimicrobial stock solutions was then added to molten agar medium (ca. 55° C.), mixed thoroughly, poured into sterile Petri dishes and allowed to cool/set. The culture medium was as described above.
(§9) A Multipoint™ Inoculator (AQS Manufacturing Ltd, UK) was used to inoculate the plates by spotting the inocula onto the surface of the agar, delivering approximately 1 to 2 μl per spot (yielding 10^5 CFU (colony forming units) per spot).
(§10) The plate(s) were then incubated under the conditions described above, following which they were examined visually for signs of bacterial growth. The MIC value was ascertained when there was a marked reduction in, or total loss of, growth on the test plate at the lowest concentration as compared to that of the growth on the control plate.
(§11) The assays were conducted in triplicate and included a positive control (culture medium, diluting solvent and inoculum).

P. granulosum PRP-019 = assay: Agar dilution MIC assay; assay type: cell-based; settings: Propionibacterium, PRP019, resistance phenotype MLSK
Experimental: as §7, §8, §9, §10, §11

P. granulosum PRP-021 = assay: Agar dilution MIC assay; assay type: cell-based; settings: Propionibacterium, PRP021, resistance phenotype MLS
Experimental: as §7, §8, §9, §10, §11

P. granulosum PRP-043 = assay: Agar dilution MIC assay; assay type: cell-based; settings: Propionibacterium, PRP043, resistance phenotype MLS
Experimental: as §7, §8, §9, §10, §11

P. granulosum PRP-044 = assay: Agar dilution MIC assay; assay type: cell-based; settings: Propionibacterium, PRP044, resistance phenotype MLS
Experimental: as §7, §8, §9, §10, §11

P. granulosum PRP-055 = assay: Agar dilution MIC assay; assay type: cell-based; settings: Propionibacterium, PRP055, resistance phenotype None
Experimental: as §7, §8, §9, §10, §11

[12] = system: Propionibacterium acnes NCTC 737; assay: Agar dilution MIC assay; assay type: cell-based; settings: Cutibacterium acnes, NCTC737, resistance phenotype None
Experimental: as §7, §8, §9, §10, §11

[13] = system: Propionibacterium granulosum NCTC 11865; assay: Agar dilution MIC assay; assay type: cell-based; settings: NCTC11865, resistance phenotype None
Experimental: as §7, §8, §9, §10, §11

P. granulosum PPR-006 = assay: Agar dilution MIC assay; assay type: cell-based, Propionibacterium granulosum; settings: Propionibacterium, PPR006
Experimental: as §7, §8, §9
as §10, with “plate. […]” for “plate.”

[14] = system: acyl-CoA: cholesterol acyltransferase (ACAT); settings: compound isolated from Aspergillus fumigatus, believed to be Antioxidant 2246; cited from earlier work
tumour = settings: compound isolated from Aspergillus fumigatus, believed to be Antioxidant 2246; cited from earlier work

Cc1cc(Cc2cc(C)cc(C(C)(C)C)c2O)c(O)c(C(C)(C)C)c1 [AO 2246, 2,2′-methylene-bis(4-methyl-6-tert-butylphenol)]
MIC/MBC Ratio (S. aureus ATCC 12600-U): 0.06 | MBC (S. aureus ATCC 12600-U; Staphylococcus aureus, ATCC12600): 15.6 µg/mL (≈ 45.8 µM) | MBC (S. aureus CPHL VISA Mu3; Staphylococcus aureus): 7.8 µg/mL (≈ 22.9 µM) | MIC/MBC Ratio (S. aureus CPHL VISA Mu3): 0.25 | MIC/MBC Ratio (S. aureus NCTC 12981): 0.25 | MBC (S. aureus NCTC 12981; Staphylococcus aureus, NCTC12981): 7.8 µg/mL (≈ 22.9 µM) | MIC [1]: 1.95 µg/mL (≈ 5.73 µM) | MIC [2]: 1.95 µg/mL (≈ 5.73 µM) | MIC [3]: 3.9 µg/mL (≈ 11.5 µM) | MIC [4]: 3.9 µg/mL (≈ 11.5 µM) | MIC [5]: 1.95 µg/mL (≈ 5.73 µM) | MIC [6]: 1.95 µg/mL (≈ 5.73 µM) | MIC [7]: 15.6 µg/mL (≈ 45.8 µM) | MIC [8]: 1.95 µg/mL (≈ 5.73 µM) | MIC [9]: 7.8 µg/mL (≈ 22.9 µM) | MIC [10]: 0.98 µg/mL (≈ 2.88 µM) | MIC [11]: 15.6 µg/mL (≈ 45.8 µM) | MIC (P. granulosum PRP-005): 3.9 µg/mL (≈ 11.5 µM) | MIC (P. granulosum PRP-019): 3.9 µg/mL (≈ 11.5 µM) | MIC (P. granulosum PRP-021): 3.9 µg/mL (≈ 11.5 µM) | MIC (P. granulosum PRP-043): 1.95 µg/mL (≈ 5.73 µM) | MIC (P. granulosum PRP-044): 3.9 µg/mL (≈ 11.5 µM) | MIC (P. granulosum PRP-055): 3.9 µg/mL (≈ 11.5 µM) | MIC [12]: 3.9 µg/mL (≈ 11.5 µM) | MIC [13]: 1.95 µg/mL (≈ 5.73 µM) | MIC (P. granulosum PPR-006): 1.95 µg/mL (≈ 5.73 µM) | inhibitor of the enzyme ACAT [14]: inhibitor | anti-tumour activity (tumour): anti-tumour activity
